US11420961B2, “Heterocyclic compounds” (Hoffmann-La Roche Inc., priority 2017, dated 2022)

Biological target: T1, MAGL (recombinant wild-type) (Homo sapiens, UniProt Q99685)
T1 sequence (Q99685 1-303): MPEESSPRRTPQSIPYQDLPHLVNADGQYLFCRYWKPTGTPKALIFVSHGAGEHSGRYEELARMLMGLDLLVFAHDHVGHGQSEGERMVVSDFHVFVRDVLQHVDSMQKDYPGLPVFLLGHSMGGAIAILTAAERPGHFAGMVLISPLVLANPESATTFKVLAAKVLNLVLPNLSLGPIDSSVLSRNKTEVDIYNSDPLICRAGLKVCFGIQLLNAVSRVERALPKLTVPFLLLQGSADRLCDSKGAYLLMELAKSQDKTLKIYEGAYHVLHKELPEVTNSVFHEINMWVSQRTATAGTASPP
Test: 4-NPA assay: MAGL inhibitory activity by hydrolysis of 4-nitrophenylacetate, absorbance at 405 nm
Format: biochemical
Conditions: 4-NPA assay (values without footnote [a])
Experimental: Compounds were profiled for MAGL inhibitory activity by measuring the enzymatic activity of MAGL by following the hydrolysis of 4-nitorphenylacetate resulting in 4-nitrophenol, which absorbs at 405-412 nm (G. G. Muccioli, G. Labar, D M. Lambert, Chem. Bio. Chem. 2008, 9, 2704-2710). This assay is hereinafter abbreviated “4-NPA assay”.
The 4-NPA assay was carried out in 384 well assay plates (black with clear bottom, non-binding surface treated, Corning Ref. 3655) in a total volume of 40 μL. Compound dilutions were made in 100% DMSO (VWR Chemicals 23500.297) in a polypropylene plate in 3-fold dilution steps to give a final concentration range in the assay from 25 μM to 1.7 nM. 1 μL compound dilutions (100% DMSO) were added to 19 μL MAGL (recombinant wild-type) in assay buffer (50 mM TRIS (GIBCO, 15567-027), 1 mM EDTA (Fluka, 03690-100 ml)). The plate was shaked for 1 min at 2000 rpm (Variomag Teleshake) and then incubated for 15 min at RT. To start the reaction, 20 μL 4-Nitrophenlyacetate (Sigma N-8130) in assay buffer with 6% EtOH was added. The final concentrations in the assay were 1 nM MAGL and 300 μM 4-Nitrophenylacetate. After shaking (1 min, 2000 rpm) and 5 min incubation at RT, the absorbance at 405 nm was measured for a first time (Molecular Devices, SpectraMax Paradigm). A second measurement was then done after incubation for 80 min at RT. From the two measurements, the slope was calculated by substracting the first from the second measurement.

SMILES	IC50
O=C1COc2ccc(C(=O)N3CCC(c4cc5ccc(Cl)cc5[nH]4)CC3)cc2N1 [Example 46, 6-[4-(6-chloro-1H-indol-2-yl)piperidine-1-carbonyl]-4H-1,4-benzoxazin-3-one]	1110 nM
Cn1cc(C2CCN(C(=O)c3ccc4c(c3)NC(=O)CO4)CC2)c2ccccc21 [Example 31, 6-[4-(1-methylindol-3-yl)piperidine-1-carbonyl]-4H-1,4-benzoxazin-3-one]	28.9 nM
O=C1COc2ccc(C(=O)N3CCC(c4csc5ccccc45)CC3)cc2N1 [Example 42, 6-[4-(1-benzothiophen-3-yl)piperidine-1-carbonyl]-4H-1,4-benzoxazin-3-one]	97 nM
COc1ccc(C(c2cccnc2)C2CCN(C(=O)c3ccc4c(c3)NC(=O)CO4)CC2)cc1OC (single isomer, unassigned) [Example 123, 6-[4-[(S or R)-(3,4-Dimethoxyphenyl)-(3-pyridyl)methyl]piperidine-1-carbonyl]-4H-1,4-benzoxazin-3-one]	8.7 nM
COc1cc(N2CCN(C(=O)c3ccc4c(c3)NC(=O)CO4)CC2)cc(OC)c1OC [Example 92, 6-[4-(3,4,5-trimethoxyphenyl)piperazine-1-carbonyl]-4H-1,4-benzoxazin-3-one]	2740 nM
O=C1COc2ccc(C(=O)N3CCC(C(c4ccc(F)cc4)c4ccnc(F)c4)CC3)cc2N1 (single isomer, unassigned) [Example 110, 6-[4-[(S or R)-(4-Fluorophenyl)-(2-fluoro-4-pyridyl)methyl]piperidine-1-carbonyl]-4H-1,4-benzoxazin-3-one]	6.2 nM
O=C1COc2ccc(C(=O)N3CCC(c4c[nH]c5cc(C(F)(F)F)ccc45)CC3)cc2N1 [Example 25, 6-[4-[6-(trifluoromethyl)-1H-indol-3-yl]piperidine-1-carbonyl]-4H-1,4-benzoxazin-3-one]	29 nM
O=C1COc2ccc(C(=O)N3CCC(C(c4ccc(F)cc4)c4ccc(OCCOCCF)cc4)CC3)cc2N1 (single isomer, unassigned) [Example 108, 6-[4-[(S or R)-[4-[2-(2-Fluoroethoxy)ethoxy]phenyl]-(4-fluorophenyl)methyl]piperidine-1-carbonyl]-4H-1,4-benzoxazin-3-one]	9.6 nM
O=C1COc2ccc(C(=O)N3CCN(c4nsc5ccccc45)CC3)cc2N1 [Example 91, 6-[4-(1,2-benzothiazol-3-yl)piperazine-1-carbonyl]-4H-1,4-benzoxazin-3-one]	2400 nM
O=C1COc2ccc(C(=O)N3CCC(c4cccc(Cl)c4)C3)cc2N1 (stereo not shown) [Example 56, 6-[3-(3-chlorophenyl)pyrrolidine-1-carbonyl]-4H-1,4-benzoxazin-3-one]	1400 nM
O=C1COc2ccc(C(=O)N3CCC(c4noc5ccc(F)cc45)CC3)cc2N1 [Example 52, 6-[4-(5-fluoro-1,2-benzoxazol-3-yl)piperidine-1-carbonyl]-4H-1,4-benzoxazin-3-one]	140 nM
O=C1COc2ccc(C(=O)N3CCC(c4cn(C5CC5)c5cc(Cl)ccc45)CC3)cc2N1 [Example 34, 6-[4-(6-chloro-1-cyclopropylindol-3-yl)piperidine-1-carbonyl]-4H-1,4-benzoxazin-3-one]	36 nM
O=C1COc2ccc(C(=O)N3CCN(c4ccc(Cl)c(Cl)c4)CC3)cc2N1 [Example 86, 6-[4-(3,4-dichlorophenyl)piperazine-1-carbonyl]-4H-1,4-benzoxazin-3-one]	612 nM
CS(=O)(=O)c1cccc(C(c2ccccc2)C2CCN(C(=O)c3ccc4c(c3)NC(=O)CO4)CC2)c1 (single isomer, unassigned) [Example 129, 6-[4-[(R or S)-(3-Methylsulfonylphenyl)-phenyl-methyl]piperidine-1-carbonyl]-4H-1,4-benzoxazin-3-one]	12.2 nM
COc1ccc2[nH]c(C)c(C3CCN(C(=O)c4ccc5c(c4)NC(=O)CO5)CC3)c2c1 [Example 41, 6-[4-(5-methoxy-2-methyl-1H-indol-3-yl)piperidine-1-carbonyl]-4H-1,4-benzoxazin-3-one]	440 nM
COc1ccc(C(c2ccncc2)C2CCN(C(=O)c3ccc4c(c3)NC(=O)CO4)CC2)cc1OC (single isomer, unassigned) [Example 125, 6-[4-[(S or R)-(3,4-Dimethoxyphenyl)-(4-pyridyl)methyl]piperidine-1-carbonyl]-4H-1,4-benzoxazin-3-one]	7.7 nM
O=C1COc2ccc(C(=O)N3CCC(C(c4ccccc4)c4ccc(F)nc4)CC3)cc2N1 (single isomer, unassigned) [Example 102, 6-[4-[(S or R)-(6-Fluoro-3-pyridyl)-phenyl-methyl]piperidine-1-carbonyl]-4H-1,4-benzoxazin-3-one]	3.5 nM
O=C1COc2ccc(C(=O)N3CCC(c4c[nH]c5ccc(Cl)cc45)CC3)cc2N1 [Example 20, 6-[4-(5-chloro-1H-indol-3-yl)piperidine-1-carbonyl]-4H-1,4-benzoxazin-3-one]	3.55 nM
COc1ccc(C(c2ccncc2)C2CCN(C(=O)c3ccc4c(c3)NC(=O)CO4)CC2)cc1OC (single isomer, unassigned) [Example 126, 6-[4-[(R or S)-(3,4-Dimethoxyphenyl)-(4-pyridyl)methyl]piperidine-1-carbonyl]-4H-1,4-benzoxazin-3-one]	8.5 nM

The next molecules have a lower IC50 than those just listed; values first:

IC50	SMILES
3.09 nM	O=C1COc2ccc(C(=O)N3CCN(C(c4ccccc4)c4ccccc4)CC3)cc2N1 [Example 83, 6-(4-benzhydrylpiperazine-1-carbonyl)-4H-1,4-benzoxazin-3-one]
2.6 nM	O=C1COc2ccc(C(=O)N3CCC(C(c4ccccc4)c4cccc(F)n4)CC3)cc2N1 (single isomer, unassigned) [Example 99, 6-[4-[(R or S)-(6-fluoro-2-pyridyl)-phenyl-methyl]piperidine-1-carbonyl]-4H-1,4-benzoxazin-3-one]
1.7 nM	Cn1cc(C2CCN(C(=O)c3ccc4c(c3)NC(=O)CO4)CC2)c2cc(Cl)ccc21 [Example 29]
1.1 nM	O=C1COc2ccc(C(=O)N3CCC([C@@H](c4ccccc4)c4cccc(OCCF)c4)CC3)cc2N1 [Example 81, 6-[4-[(S)-[3-(2-fluoroethoxy)phenyl]-phenyl-methyl]piperidine-1-carbonyl]-4H-1,4-benzoxazin-3-one]
0.8 nM	COc1ccc(C(c2ccccc2)C2CCN(C(=O)c3ccc4c(c3)NC(=O)CO4)CC2)cc1 (stereo not shown) [Example 58, 6-[4-[(4-methoxyphenyl)-phenyl-methyl]piperidine-1-carbonyl]-4H-1,4-benzoxazin-3-one]
0.65 nM	O=C1COc2ccc(C(=O)N3CCC([C@@H](c4ccccc4)c4cccc(OCCOCCF)c4)CC3)cc2N1 [Example 67, 6-[4-[(S)-[3-[2-(2-fluoroethoxy)ethoxy]phenyl]-phenyl-methyl]piperidine-1-carbonyl]-4H-1,4-benzoxazin-3-one]
0.6 nM	CS(=O)(=O)c1cccc(C(c2ccccc2)C2CCN(C(=O)c3ccc4c(c3)NC(=O)CO4)CC2)c1 (single isomer, unassigned) [Example 128, 6-[4-[(S or R)-(3-Methylsulfonylphenyl)-phenyl-methyl]piperidine-1-carbonyl]-4H-1,4-benzoxazin-3-one]
0.5 nM	COc1cccc([C@@H](c2ccccc2)C2CCN(C(=O)c3ccc4c(c3)NC(=O)CO4)CC2)c1 (single isomer, unassigned) [Example 13]
0.5 nM	O=C1COc2ccc(C(=O)N3CCC(C(c4ccccc4)c4ccccc4)CC3)cc2N1 [Example 2, 6-(4-Benzhydrylpiperidine-1-carbonyl)-4H-1,4-benzoxazin-3-one]
0.4 nM	O=C1COc2ccc(C(=O)N3CCC(C(c4ccc(F)cc4)c4cccc(OCCOCCF)c4)CC3)cc2N1 (single isomer, unassigned) [Example 94, 6-[4-[(S or R)-[3-[2-(2-Fluoroethoxy)ethoxy]phenyl]-(4-fluorophenyl)methyl]piperidine-1-carbonyl]-4H-1,4-benzoxazin-3-one]
0.3 nM	COc1ccc(C(c2ccc(F)cc2)C2CCN(C(=O)c3ccc4c(c3)NC(=O)CO4)CC2)cc1OC (single isomer, unassigned) [Example 104, 6-[4-[(S or R)-(3,4-Dimethoxyphenyl)-(4-fluorophenyl)methyl]piperidine-1-carbonyl]-4H-1,4-benzoxazin-3-one]
0.2 nM	O=C1COc2ccc(C(=O)N3CCC(C(c4ccccc4)c4ccc(OCCOCCF)cc4)CC3)cc2N1 (single isomer, unassigned) [Example 96, 6-[4-[(S or R)-[4-[2-(2-Fluoroethoxy)ethoxy]phenyl]-phenyl-methyl]piperidine-1-carbonyl]-4H-1,4-benzoxazin-3-one]
